Molecules are shown by their SMILES. pEC50: −log10 of the molar value.

In general, pEC50 refers to −log10 of the EC50, conventionally taken in molar units.

Common to all, as to format: cell-based
For experiment [1], the target named is T1, glucocorticoid receptor (Homo sapiens, UniProt P04150).
T1 construct: A549 cells stably transfected with a reporter gene; endogenous in cells; host or cells: A549 cells (stably transfected with a reporter gene only)
T1 sequence (P04150 1-777): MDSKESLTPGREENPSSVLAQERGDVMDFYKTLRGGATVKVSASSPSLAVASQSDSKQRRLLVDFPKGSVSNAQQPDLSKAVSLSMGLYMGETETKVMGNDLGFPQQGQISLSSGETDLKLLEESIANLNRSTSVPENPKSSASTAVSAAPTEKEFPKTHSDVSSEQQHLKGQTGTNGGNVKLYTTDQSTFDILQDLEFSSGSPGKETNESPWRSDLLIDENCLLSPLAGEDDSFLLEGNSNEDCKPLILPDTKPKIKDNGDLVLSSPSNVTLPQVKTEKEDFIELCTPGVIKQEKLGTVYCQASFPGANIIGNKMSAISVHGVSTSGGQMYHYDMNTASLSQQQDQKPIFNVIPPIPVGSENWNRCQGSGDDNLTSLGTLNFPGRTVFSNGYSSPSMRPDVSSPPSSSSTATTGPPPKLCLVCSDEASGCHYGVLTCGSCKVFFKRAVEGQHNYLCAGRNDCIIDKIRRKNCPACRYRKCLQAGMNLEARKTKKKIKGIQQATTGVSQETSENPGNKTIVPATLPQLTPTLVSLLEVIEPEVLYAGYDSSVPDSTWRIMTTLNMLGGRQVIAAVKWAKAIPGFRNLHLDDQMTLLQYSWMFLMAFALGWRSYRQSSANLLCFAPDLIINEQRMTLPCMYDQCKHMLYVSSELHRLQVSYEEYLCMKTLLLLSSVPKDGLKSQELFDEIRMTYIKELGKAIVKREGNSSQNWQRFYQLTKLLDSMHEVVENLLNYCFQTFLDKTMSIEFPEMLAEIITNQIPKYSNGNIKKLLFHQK
In words: MMTV-LTR renilla luciferase transactivation reporter assay in A549 cells. To be noted: 6 hour at 37° C., read-out: maximal response relative to Dexamethasone (100%). The method, then:
The functional assay based on that described by R. J. H. Austin et al., Eur Resp J. (2002), 20, 1386-1392 measures the ability of compounds to directly transactivate gene expression. A549 cells stably transfected with a reporter gene containing the glucocorticoid responsive region of the mouse mammary tumour virus long terminal repeat (MMTV-LTR) coupled to renilla luciferase were treated with test compounds at appropriate doses for 6 hour at 37° C. The amount of luciferase activity present within the cells is then determined by measuring the light emitted following incubation with a suitable substrate.
A general note: A reporter such as luciferase makes a cellular process visible.

Experiment [2] has as its target T2, Progesterone Receptor (Homo sapiens, UniProt P06401).
T2 construct: T47D cells were seeded into 96 well plates; endogenous in cells; host or cells: T47D human breast cancer cells
T2 sequence (P06401 1-933): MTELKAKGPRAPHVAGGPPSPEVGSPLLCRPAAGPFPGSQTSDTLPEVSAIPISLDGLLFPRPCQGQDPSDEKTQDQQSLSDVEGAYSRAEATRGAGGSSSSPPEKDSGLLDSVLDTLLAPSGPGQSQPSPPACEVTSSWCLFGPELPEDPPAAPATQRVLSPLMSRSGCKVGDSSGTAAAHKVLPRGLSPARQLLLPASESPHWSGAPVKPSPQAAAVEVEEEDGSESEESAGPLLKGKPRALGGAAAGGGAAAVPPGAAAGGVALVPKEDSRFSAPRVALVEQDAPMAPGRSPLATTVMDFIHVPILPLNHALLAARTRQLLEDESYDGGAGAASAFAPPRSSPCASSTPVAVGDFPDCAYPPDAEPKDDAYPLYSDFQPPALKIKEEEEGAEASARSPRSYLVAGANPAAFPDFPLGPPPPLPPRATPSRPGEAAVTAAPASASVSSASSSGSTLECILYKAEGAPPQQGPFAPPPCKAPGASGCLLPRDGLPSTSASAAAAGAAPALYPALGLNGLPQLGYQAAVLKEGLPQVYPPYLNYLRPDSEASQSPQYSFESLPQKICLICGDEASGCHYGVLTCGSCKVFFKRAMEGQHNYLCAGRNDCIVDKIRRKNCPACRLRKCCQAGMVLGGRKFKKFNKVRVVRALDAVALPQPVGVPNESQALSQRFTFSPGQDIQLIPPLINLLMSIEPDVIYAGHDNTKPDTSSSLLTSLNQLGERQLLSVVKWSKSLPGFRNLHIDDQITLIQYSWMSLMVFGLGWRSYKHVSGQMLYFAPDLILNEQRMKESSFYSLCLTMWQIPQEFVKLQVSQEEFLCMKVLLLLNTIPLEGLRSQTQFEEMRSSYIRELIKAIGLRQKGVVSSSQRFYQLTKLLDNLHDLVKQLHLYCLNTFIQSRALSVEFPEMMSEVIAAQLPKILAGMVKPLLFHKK
In words: Assay for progesterone receptor activity (alkaline phosphatase in T47D cells). The settings on record: T47D human breast cancer cells, 24 hours at 37° C.; read-out: EC50 (alkaline phosphatase upregulation).

The target of experiment [3] is T1, glucocorticoid receptor. Description: NF-κB transrepression reporter assay (ELAM promoter-sPAP) in A549 cells. To be noted: compound 1 hour at 37° C., then TNF 10 ng/ml for 16 hours, read-out: EC50 (transrepressive activity). How it is done: The functional assay based on that described by K. P. Ray et al., Biochem J. (1997), 328, 707-715 provides a measure of transrepressive activity of a glucocorticoid agonist. A549 cells stably transfected with a reporter gene containing the NF-κB responsive elements from the ELAM gene promoter coupled to sPAP (secreted alkaline phosphatase) are treated with test compounds at appropriate doses for 1 hour at 37° C. The cells are then stimulated with tumour necrosis factor (TNF, 10 ng/ml) for 16 hours, at which time the amount of alkaline phosphatase produced is measured by a standard colourimetric assay. Dose response curves are constructed from which EC50 values may be estimated.

Consider `C[C@@H]1C[C@H]2[C@@H]3C[C@H](F)C4=CC(=O)C=C[C@]4(C)[C@@]3(F)[C@@H](O)C[C@]2(C)[C@@]1(OC(=O)C1C(C)(C)C1(C)C)C(=O)OCC#N` [Example 1, 6α,9α-Difluoro-11β-hydroxy-16α-methyl-3-oxo-17α-(2,2,3,3-tetramethycyclopropylcarbonyl)oxy-androsta-1,4-diene-17β-carboxylic acid cyanomethyl ester], for which the Emax in experiment [1] was < 5%. Moreover, the figures for the pEC50 in experiment [2] and in experiment [3] were < 7.00 and > 10.00, respectively.

The record behind these values is patent publication US7291609B2, “Specific glucocorticosteroid compound having anti-inflammatory activity” (Glaxo Group Limited, priority 2003, dated 2007).
